Experimental data taken from paper PMC12523843, “Kuwanon A Targeted YWHAB in Hepatocellular Carcinoma Cells to Inhibit the Raf/MEK/ERK Signaling Pathway” (Cells, 2025).

Tests used:
[1] = test system: MHCC97 H cells injected into the liver; assay: Orthotopic hepatocellular carcinoma xenograft survival; type: in vivo, BALB/c-nu mice; conditions: 30 mg/kg intraperitoneal, every two days, 45 days
From the text: Thirty-six female BALB/c-nu mice, four weeks old (supplied by Slike Jingda Laboratory Animal Co., Ltd., Changsha, China; Animal qualification number: SCXK-2019-0004), were housed in an SPF room. […] Therefore, female mice were selected for this study; 12 mice were used to establish the hepatocellular carcinoma xenografts. MHCC97 H cells (1 × 10^5 cells) were slowly injected into the left lobe of the mouse liver after being anesthetized with isoflurane. Three days later, the mice received intraperitoneal injections of KA (30 mg/kg) every two days for 45 days. Control mice were administered DMSO injections. Recorded the survival status of the animals. Prior to liver collection, the mice were anesthetized with isoflurane to minimize pain and euthanized by cervical dislocation. Ethics approval serial number: IACUC-20240613-03. Animal experiments were conducted in accordance with the Guide for the Care and Use of Laboratory Animals (Ministry of Science and Technology of China, 2006).

[2] = Renal and liver function tests in treated mice; type: in vivo, BALB/c-nu mice; conditions: KA-treated mice compared to DMSO controls
[3] = test system: HCC cells (MHCC97 H and SMMC 7721); assay: Cell wound healing assay; type: cell-based, human; conditions: 48 h, vs DMSO
Experimental: We seeded the cells in 6-well plates and allowed them to adhere and grow to full confluence. Then, we gently scratched the cell monolayer in a straight line using a sterile pipette tip. We rinsed the wells with PBS to remove detached cells and debris. We captured bright-field images of the scratched area at baseline (0 h). We replaced the medium with DMEM containing KA or DMSO and continued incubation. We re-imaged the same wound areas at 24 h and 48 h post-scratch. We quantified cell migration by measuring wound closure (%) over time using image analysis software.

[4] = test system: YWHAB knockdown HCC cells; assay: MTT IC50 in YWHAB knockdown HCC cells; type: cell-based, human; conditions: 48 h, vs scramble
Experimental: Cell viability was assessed using MTT experiments. Cells, together with KA, were seeded into 96-well plates at a density of 2000 cells per well with three replicates per condition. DMSO was used as a control. At designated time points, 20 μL of MTT (Sigma, St. Louis, MO, USA) solution was added to each well and incubated for 3 h. After removing the culture medium, 200 μL of DMSO was added to dissolve the formazan crystals. The absorbance was then measured using a microplate reader at a wavelength of 560 nm.
Short hairpin (sh) RNA targeting YWHAB was cloned into the pLKO.1-puro plasmid, with the sequences listed in Supplementary Table S1. Flag-tagged YWHAB, MYC-tagged YWHAB, and Flag-tagged Raf1 plasmids were purchased from Miaoling (Wuhan, China). Transfection was performed by introducing the specified plasmids into HEK293FT cells using Lipofectamine 2000 (Thermo, New York, NY, USA), following the manufacturer’s instructions. Viral supernatant or cells were collected two days post-transfection. For infection, HCC cells were treated with viral supernatant and polybrene (Sigma, Virginia Beach, VA, USA). After two rounds of infection, the cells were stably selected by using puromycin (Sigma, Virginia Beach, VA, USA).

[5] = biological target: T1, Raf1 and YWHAB interaction (Homo sapiens, UniProt P31946); assay: Co-immunoprecipitation of MYC-YWHAB and FLAG-Raf 1 in HEK 293T; type: cell-based; conditions: 25 μM and 30 μM, HEK 293T overexpressing MYC-YWHAB and FLAG-Raf 1
T1 construct: host or cells: HEK 293T
T1 sequence (P31946 1-246): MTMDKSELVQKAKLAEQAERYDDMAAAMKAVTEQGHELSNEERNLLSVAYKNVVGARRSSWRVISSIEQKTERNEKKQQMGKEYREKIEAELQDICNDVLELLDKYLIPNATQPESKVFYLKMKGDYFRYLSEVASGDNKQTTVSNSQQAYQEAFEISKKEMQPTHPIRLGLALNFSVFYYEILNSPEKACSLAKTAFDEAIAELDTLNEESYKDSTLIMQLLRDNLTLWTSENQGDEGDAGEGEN

[6] = biological target: T2, YWHAB (Homo sapiens, UniProt P31946); assay: Epoxy-activated Sepharose 6B pull-down; type: binding; design: host or cells: HEK 293T; conditions: KA immobilized on Sepharose 6B, HEK 293T overexpressing YWHAB
T2 sequence (P31946 1-246): T1 sequence (P31946 1-246)
Experimental: Epoxy-activated Sepharose 6B (Cytia, Washington, DC, USA) affinity media was used to bind KA molecules following the media’s absorbency swelling. The Sepharose 6B media was co-incubated with KA or DMSO and gently agitated overnight at room temperature. The product was then thoroughly washed through at least three cycles. Any remaining active groups were blocked using 1 M ethanolamine, incubated for 4 h at 37 °C. The 6B media, now bound with KA or DMSO, were further incubated with the cell lysate sample overnight, with gentle agitation at 4 °C. The media was washed again through a minimum of three cycles. A suitable amount of loading buffer was added, and the samples were heated in a 100 °C water bath for 15 min. The resulting supernatant was then ready for use in SDS-PAGE electrophoresis.

[7] = biological target: T3, YWHAB dimer (Homo sapiens, UniProt P31946); assay: Co-immunoprecipitation of MYC-YWHAB and FLAG-YWHAB in HEK 293T; type: cell-based; design: host or cells: HEK 293T; conditions: 25 μM and 30 μM, HEK 293T overexpressing MYC-YWHAB and FLAG-YWHAB
T3 sequence (P31946 1-246): T1 sequence (P31946 1-246)

[8] = biological target: T2, YWHAB; assay: Cell thermal shift assay (CETSA); type: binding; design: endogenous in cells; host or cells: MHCC97 H and SMMC 7721; conditions: high concentration of KA, 3 h, MHCC97 H and SMMC 7721, 44–65 °C
Experimental: The cells were treated with a high concentration (3–4 times the IC50) of the drug for 2–4 h before being digested with trypsin. Then the cells were washed 1–2 times with PBS. Resuspend the cells in […] of PBS. Subsequently, divided them into eight portions, each containing 50 µL. Set the appropriate temperature range and gradient. In our research, the range of 44–65 °C was used. Each portion of cells was treated at the specified temperature for 3–5 min. Then, the cells were repeatedly frozen and thawed using liquid nitrogen. After high-speed centrifugation (20,000× g, 20 min), we took the top layer of supernatant. After adding an appropriate amount of loading buffer, we conducted the Western Blot assay. Quantitative analysis was used to determine whether the compound has enhanced the thermal stability of the target protein.

For `CC(C)=CCc1c(-c2ccc(O)c3c2OC(C)(C)C=C3)oc2cc(O)cc(O)c2c1=O` [KA, Kuwanon A], the survival time [1] was “significantly extended”, the “renal and liver function tests (ALB, total protein, GOT/AST, GPT/ALT)” value [2] was “no significant changes” and the “wound healing (cell scratch assay)” value [3] was “significant reduction in wound healing”. For the same molecule, the “IC50 of KA after knockdown of YWHAB” value [4] was “significant increase in the IC50”, the “amount of YWHAB interacting with Raf1 (co-immunoprecipitation)” value [5] was “reduction in the amount of YWHAB interacting with Raf1” and the “interaction with YWHAB (pull-down)” value [6] was “direct interaction”. For the same molecule, the “dimerization levels of YWHAB (co-immunoprecipitation)” value [7] was “reduced dimerization levels of YWHAB” and the “thermal stability of YWHAB (CETSA)” value [8] was “increased thermal stability of YWHAB”.
